Measured values as given in article PMC7324419 (Human Cell, 2020).

System: A549 cell line (lung carcinoma from human)
Type: cell-based
Conditions: read-out: IC50 [µM] against A549

Compound | IC50 [µM]
O=C(NCCCNc1c2c(nc3ccccc13)CCCC2)c1ccccc1F [Compound 2] | 148
O=c1[nH]cc(F)c(=O)[nH]1 [Compound C2, 5-fluorouracil] | > 1800
O=C(NCCCNc1c2c(nc3ccccc13)CCCC2)c1cccc(F)c1 [Compound 5] | 118
COc1cc([C@@H]2c3cc4c(cc3[C@@H](O[C@@H]3O[C@@H]5CO[C@@H](C)O[C@H]5[C@H](O)[C@H]3O)[C@H]3COC(=O)[C@H]23)OCO4)cc(OC)c1O [Compound C1, Etoposide] | 451
O=C(NCCNc1c2c(nc3ccccc13)CCCC2)c1ccccc1F [Compound 1] | 106

System: HT29 cell line (colorectal adenocarcinoma from human)
Type: cell-based
Conditions: read-out: IC50 [µM] against HT29

Compound | IC50 [µM]
O=C(NCCCNc1c2c(nc3ccccc13)CCCC2)c1ccccc1F [Compound 2] | 50.2
O=c1[nH]cc(F)c(=O)[nH]1 [Compound C2, 5-fluorouracil] | 1630
O=C(NCCCNc1c2c(nc3ccccc13)CCCC2)c1cccc(F)c1 [Compound 5] | 44
COc1cc([C@@H]2c3cc4c(cc3[C@@H](O[C@@H]3O[C@@H]5CO[C@@H](C)O[C@H]5[C@H](O)[C@H]3O)[C@H]3COC(=O)[C@H]23)OCO4)cc(OC)c1O [Compound C1, Etoposide] | 654
O=C(NCCNc1c2c(nc3ccccc13)CCCC2)c1ccccc1F [Compound 1] | 68.4

System: EAhy926 cell line (the human umbilical vein, somatic cell hybrid)
Type: cell-based
Conditions: read-out: IC50 [µM] against EA.hy9263

Compound | IC50 [µM]
O=c1[nH]cc(F)c(=O)[nH]1 [Compound C2, 5-fluorouracil] | > 1800
COc1cc([C@@H]2c3cc4c(cc3[C@@H](O[C@@H]3O[C@@H]5CO[C@@H](C)O[C@H]5[C@H](O)[C@H]3O)[C@H]3COC(=O)[C@H]23)OCO4)cc(OC)c1O [Compound C1, Etoposide] | 155

Target: hyaluronidase from bovine testes Type I-S (Bos taurus, UniProt Q2YDK3)
Sequence (Q2YDK3 36-553 limits assumed): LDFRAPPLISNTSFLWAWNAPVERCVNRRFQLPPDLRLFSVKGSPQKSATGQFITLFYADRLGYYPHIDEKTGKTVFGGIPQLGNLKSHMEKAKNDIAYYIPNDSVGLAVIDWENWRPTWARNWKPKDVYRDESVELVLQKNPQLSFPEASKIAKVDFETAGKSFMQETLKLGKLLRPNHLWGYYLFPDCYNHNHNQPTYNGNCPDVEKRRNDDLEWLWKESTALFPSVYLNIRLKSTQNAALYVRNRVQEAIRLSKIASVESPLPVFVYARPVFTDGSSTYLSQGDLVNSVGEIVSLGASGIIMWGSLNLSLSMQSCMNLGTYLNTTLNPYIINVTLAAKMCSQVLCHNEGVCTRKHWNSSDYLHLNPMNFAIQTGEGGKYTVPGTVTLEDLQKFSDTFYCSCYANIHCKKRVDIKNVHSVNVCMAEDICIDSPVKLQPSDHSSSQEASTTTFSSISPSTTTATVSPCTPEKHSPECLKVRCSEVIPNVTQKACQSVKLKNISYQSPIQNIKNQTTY
Type: biochemical
Conditions: read-out: IC50 (µM) hyaluronidase inhibition

Compound | IC50 [µM]
heparin [Compound C3] | 56.4
